This series deals with fertility of male mice. Description: Timed mouse mating (contraceptive efficacy). Particulars: for Contraceptive efficacy: vs vehicle. The format is in vivo. The procedure: Single-housed naive (i.e., uninjected and virgin) male and female C57Bl/6 mice were acclimatized to a reverse light cycle (dark: 11 AM to 11 PM) for at least 2 weeks. […] Pregnancy and litter size was assessed in two ways. Either female were sacrificed 7 days following mating and implanted embryos counted, or females were permitted to go to term (21 days) and pups counted. A subset of the pups (both male and female) born from breakthrough pregnancies were permitted to mature and their fertility was assessed in standard matings.

The mark [1] stands for this setting: 50 mg/kg i.p., mating period 0.5–2.5 hours, 2 hours.
Where [2] appears, read: 50 mg/kg i.p., mating period 1–9 hours, 8 hours.

Molecules are shown by their SMILES. “Also recorded” adds a separate entry of the source.

In the case of `Nc1nc(Cl)cc(-c2nn(C(F)F)cc2Cc2ccccc2OCCN2CCOC[C@@H]2CO)n1` [TDI-11861], where the note is “50 mg/kg i.p.”, the “mating behavior and mating frequency versus vehicle-injected males” value is “same frequency as vehicle-injected males; also recorded: indistinguishable”. Also, the Pregnancy rate was found to be 0% (50 mg/kg i.p., mating period 0.5–2.5 hours post injection, mating time 2 hours); 2.2% (50 mg/kg i.p., mating period 0.5–[…], mating time 3 hours); 9.1% (50 mg/kg i.p., mating period 1–9 hours, mating time 8 hours); 87% (50 mg/kg i.p., mating period 24–120 hours, mating time 96 hours (recovery)). The “Pregnancy pairings (pregnancies/pairings)” value by setting is: under setting [1], “zero females became pregnant in 52 pairings; also recorded: (0/52)”; under setting [2], 5 pregnancies out of 55 and (5/55); (50 mg/kg i.p., mating period 24–120 hours, 96 hours) “(13/15)”. The compound further yielded a Contraceptive efficacy under setting [1] of 100%; a Contraceptive efficacy (50 mg/kg i.p., mating period 0.5–[…], 3 hours) of 91%; a Contraceptive efficacy under setting [2] of 78%. Also, the “health of F1 progeny from breakthrough pregnancies” value (male and female F1) is recorded as “matured normally into fertile adults”.

These data come from PMC9929232, “On-demand male contraception via acute inhibition of soluble adenylyl cyclase” (Nature Communications, 2023).
